Laboratory results taken from patent publication US11208412B2 (DAEGU-GYEONGBUK MEDICAL INNOVATION FOUNDATION, priority 2017, dated 2021).
Read-outs that look alike come from different tables or passages of the source.

Experiments:
Experiment in all cases: Kinase selectivity, DiscoverX scanMAX Kinase assay panel (% control)
Format in all cases: binding
[1] = molecular target: T1, kinases of the scanMAX Kinase assay panel (Homo sapiens, UniProt P00519, F317L); conditions: 1 uM
T1 construct: purchased DiscoverX Co. (contract measurement) scanMAX Kinase assay panel
T1 sequence (P00519 whole entry F317L): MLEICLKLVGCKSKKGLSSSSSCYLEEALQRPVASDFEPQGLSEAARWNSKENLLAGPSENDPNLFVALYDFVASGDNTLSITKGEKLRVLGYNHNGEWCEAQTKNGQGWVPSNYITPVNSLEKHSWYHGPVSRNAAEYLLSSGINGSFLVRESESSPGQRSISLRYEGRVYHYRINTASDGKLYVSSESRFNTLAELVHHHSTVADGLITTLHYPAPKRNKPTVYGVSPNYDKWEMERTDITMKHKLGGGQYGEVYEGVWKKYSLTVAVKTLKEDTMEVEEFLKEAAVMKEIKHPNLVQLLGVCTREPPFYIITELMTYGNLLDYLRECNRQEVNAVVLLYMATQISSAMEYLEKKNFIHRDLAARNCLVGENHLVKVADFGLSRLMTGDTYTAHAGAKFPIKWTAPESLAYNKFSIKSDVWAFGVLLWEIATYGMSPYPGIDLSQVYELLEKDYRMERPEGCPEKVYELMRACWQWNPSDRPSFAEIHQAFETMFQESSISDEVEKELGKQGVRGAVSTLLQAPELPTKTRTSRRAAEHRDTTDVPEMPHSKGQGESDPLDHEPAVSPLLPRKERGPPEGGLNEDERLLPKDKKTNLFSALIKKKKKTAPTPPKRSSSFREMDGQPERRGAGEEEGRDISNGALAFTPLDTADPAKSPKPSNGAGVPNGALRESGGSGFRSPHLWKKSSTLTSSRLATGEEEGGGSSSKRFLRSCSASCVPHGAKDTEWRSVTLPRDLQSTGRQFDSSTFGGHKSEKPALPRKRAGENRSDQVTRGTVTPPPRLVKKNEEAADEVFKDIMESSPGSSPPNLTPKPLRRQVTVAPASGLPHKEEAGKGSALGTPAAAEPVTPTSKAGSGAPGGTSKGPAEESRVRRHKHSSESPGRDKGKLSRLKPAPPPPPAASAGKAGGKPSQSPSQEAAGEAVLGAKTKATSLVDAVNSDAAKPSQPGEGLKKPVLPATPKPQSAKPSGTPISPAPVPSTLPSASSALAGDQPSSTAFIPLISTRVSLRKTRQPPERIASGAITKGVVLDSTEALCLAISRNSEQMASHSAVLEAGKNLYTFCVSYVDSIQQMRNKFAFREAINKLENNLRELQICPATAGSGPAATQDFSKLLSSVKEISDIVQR
Summary of the method: (§1)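 Read-out is % control, normalised so a positive-control compound sits at 0% and DMSO at 100%: (test − positive)/(negative − positive)×100. Each kinase received the compound at 1 uM in DMSO. A value below 35% counts as activity.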

[2] = molecular target: T2, kinases of the scanMAX Kinase assay panel (Homo sapiens, UniProt Q9H2X6); conditions: HIPK2; 1 uM
T2 construct: purchased DiscoverX Co. (contract measurement) scanMAX Kinase assay panel
T2 sequence (Q9H2X6 whole entry): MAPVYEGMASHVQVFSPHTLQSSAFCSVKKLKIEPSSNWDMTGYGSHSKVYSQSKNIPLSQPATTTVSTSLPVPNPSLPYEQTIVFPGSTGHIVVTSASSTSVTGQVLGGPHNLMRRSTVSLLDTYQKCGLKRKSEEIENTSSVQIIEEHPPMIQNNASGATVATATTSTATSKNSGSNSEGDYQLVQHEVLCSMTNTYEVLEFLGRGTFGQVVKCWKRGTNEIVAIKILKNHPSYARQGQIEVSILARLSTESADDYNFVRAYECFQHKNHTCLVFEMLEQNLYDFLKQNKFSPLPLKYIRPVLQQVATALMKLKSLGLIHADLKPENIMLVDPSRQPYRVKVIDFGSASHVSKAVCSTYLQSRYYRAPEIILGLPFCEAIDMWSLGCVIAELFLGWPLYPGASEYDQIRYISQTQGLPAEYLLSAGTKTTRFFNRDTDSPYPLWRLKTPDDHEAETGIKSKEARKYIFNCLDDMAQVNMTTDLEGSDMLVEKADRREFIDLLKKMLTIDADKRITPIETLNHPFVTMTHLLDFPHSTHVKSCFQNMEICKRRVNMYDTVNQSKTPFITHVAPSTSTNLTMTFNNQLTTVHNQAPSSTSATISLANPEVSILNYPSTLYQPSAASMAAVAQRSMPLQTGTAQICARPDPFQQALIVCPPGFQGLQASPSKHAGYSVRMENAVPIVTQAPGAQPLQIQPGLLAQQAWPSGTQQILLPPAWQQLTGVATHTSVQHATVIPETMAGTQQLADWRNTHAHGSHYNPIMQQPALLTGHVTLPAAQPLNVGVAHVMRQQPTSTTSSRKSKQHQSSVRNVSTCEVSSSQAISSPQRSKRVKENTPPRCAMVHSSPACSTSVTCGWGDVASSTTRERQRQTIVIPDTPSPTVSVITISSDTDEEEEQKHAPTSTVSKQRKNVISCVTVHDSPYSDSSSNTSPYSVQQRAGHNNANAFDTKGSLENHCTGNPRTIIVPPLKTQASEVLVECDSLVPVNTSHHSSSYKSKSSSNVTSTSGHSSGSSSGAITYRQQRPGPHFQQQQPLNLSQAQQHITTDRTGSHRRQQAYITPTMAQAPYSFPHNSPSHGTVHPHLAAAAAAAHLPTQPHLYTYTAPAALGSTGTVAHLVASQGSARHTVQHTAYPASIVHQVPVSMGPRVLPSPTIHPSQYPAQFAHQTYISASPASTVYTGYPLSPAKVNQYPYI
Summary of the method: as §1

[3] = molecular target: T3, kinases of the scanMAX Kinase assay panel (Homo sapiens, UniProt P24941); conditions: CDK2; 1 uM
T3 construct: purchased DiscoverX Co. (contract measurement) scanMAX Kinase assay panel
Summary of the method: as §1

[4] = molecular target: T4, kinases of the scanMAX Kinase assay panel (Homo sapiens, UniProt Q13163); conditions: MEK5; 1 uM
T4 construct: purchased DiscoverX Co. (contract measurement) scanMAX Kinase assay panel
T4 sequence (Q13163 1-448): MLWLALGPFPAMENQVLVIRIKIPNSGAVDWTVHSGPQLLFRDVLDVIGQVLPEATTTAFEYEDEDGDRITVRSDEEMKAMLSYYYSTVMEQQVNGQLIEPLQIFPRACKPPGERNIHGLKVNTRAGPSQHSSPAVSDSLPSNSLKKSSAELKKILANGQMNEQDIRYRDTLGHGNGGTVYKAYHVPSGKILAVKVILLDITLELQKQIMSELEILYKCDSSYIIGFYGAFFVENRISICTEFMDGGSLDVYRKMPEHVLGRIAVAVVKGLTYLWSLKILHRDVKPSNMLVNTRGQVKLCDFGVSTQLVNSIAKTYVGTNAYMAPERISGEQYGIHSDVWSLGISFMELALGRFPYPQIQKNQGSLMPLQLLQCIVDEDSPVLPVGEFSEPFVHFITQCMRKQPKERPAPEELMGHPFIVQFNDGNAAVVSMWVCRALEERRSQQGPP
Summary of the method: as §1

[5] = molecular target: T5, kinases of the scanMAX Kinase assay panel (Homo sapiens, UniProt Q9UK32); conditions: 1 uM in DMSO
T5 construct: purchased DiscoverX Co. (contract measurement) scanMAX Kinase assay panel
T5 sequence (Q9UK32 whole entry): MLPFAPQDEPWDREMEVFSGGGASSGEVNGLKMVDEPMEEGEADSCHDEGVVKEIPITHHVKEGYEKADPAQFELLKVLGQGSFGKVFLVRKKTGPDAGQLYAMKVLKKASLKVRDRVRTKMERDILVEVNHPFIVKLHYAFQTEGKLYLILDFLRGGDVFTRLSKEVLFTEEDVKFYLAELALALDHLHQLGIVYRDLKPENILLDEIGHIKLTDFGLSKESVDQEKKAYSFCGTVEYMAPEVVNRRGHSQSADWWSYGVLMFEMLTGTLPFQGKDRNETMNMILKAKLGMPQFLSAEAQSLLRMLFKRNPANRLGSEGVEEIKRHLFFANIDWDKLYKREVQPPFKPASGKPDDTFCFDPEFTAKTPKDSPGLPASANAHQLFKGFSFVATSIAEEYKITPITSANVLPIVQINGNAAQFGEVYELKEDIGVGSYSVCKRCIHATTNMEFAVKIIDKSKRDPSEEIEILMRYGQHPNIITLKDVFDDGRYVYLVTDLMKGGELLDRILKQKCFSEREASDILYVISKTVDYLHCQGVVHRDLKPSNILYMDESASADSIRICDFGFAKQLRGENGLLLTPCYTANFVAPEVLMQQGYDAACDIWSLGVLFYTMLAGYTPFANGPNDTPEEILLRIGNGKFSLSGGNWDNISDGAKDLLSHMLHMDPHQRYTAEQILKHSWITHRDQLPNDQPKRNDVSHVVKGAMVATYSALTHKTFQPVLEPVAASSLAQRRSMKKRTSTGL
Summary of the method: as §1

[6] = molecular target: T6, kinases of the scanMAX Kinase assay panel (Plasmodium falciparum, UniProt P61075); conditions: PFPK5(P. falciparum); 1 uM
T6 construct: purchased DiscoverX Co. (contract measurement) scanMAX Kinase assay panel
Summary of the method: as §1

[7] = molecular target: T7, kinases of the scanMAX Kinase assay panel (Homo sapiens, UniProt O14733); conditions: MKK7; 1 uM
T7 construct: purchased DiscoverX Co. (contract measurement) scanMAX Kinase assay panel
T7 sequence (O14733 1-419): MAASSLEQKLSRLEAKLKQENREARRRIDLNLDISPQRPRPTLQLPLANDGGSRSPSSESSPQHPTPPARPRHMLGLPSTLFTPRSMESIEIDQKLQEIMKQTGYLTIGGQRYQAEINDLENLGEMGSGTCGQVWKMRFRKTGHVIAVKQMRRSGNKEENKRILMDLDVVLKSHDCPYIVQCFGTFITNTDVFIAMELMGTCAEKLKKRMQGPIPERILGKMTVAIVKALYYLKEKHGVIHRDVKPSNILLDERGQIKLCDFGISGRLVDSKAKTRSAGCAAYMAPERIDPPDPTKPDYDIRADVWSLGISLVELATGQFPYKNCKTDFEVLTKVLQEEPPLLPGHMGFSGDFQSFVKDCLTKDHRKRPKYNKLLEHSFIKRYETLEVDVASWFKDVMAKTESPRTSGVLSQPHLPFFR
Summary of the method: as §1

[8] = molecular target: T8, kinases of the scanMAX Kinase assay panel (Homo sapiens, UniProt P16591); conditions: FER; 1 uM
T8 construct: purchased DiscoverX Co. (contract measurement) scanMAX Kinase assay panel
T8 sequence (P16591 whole entry): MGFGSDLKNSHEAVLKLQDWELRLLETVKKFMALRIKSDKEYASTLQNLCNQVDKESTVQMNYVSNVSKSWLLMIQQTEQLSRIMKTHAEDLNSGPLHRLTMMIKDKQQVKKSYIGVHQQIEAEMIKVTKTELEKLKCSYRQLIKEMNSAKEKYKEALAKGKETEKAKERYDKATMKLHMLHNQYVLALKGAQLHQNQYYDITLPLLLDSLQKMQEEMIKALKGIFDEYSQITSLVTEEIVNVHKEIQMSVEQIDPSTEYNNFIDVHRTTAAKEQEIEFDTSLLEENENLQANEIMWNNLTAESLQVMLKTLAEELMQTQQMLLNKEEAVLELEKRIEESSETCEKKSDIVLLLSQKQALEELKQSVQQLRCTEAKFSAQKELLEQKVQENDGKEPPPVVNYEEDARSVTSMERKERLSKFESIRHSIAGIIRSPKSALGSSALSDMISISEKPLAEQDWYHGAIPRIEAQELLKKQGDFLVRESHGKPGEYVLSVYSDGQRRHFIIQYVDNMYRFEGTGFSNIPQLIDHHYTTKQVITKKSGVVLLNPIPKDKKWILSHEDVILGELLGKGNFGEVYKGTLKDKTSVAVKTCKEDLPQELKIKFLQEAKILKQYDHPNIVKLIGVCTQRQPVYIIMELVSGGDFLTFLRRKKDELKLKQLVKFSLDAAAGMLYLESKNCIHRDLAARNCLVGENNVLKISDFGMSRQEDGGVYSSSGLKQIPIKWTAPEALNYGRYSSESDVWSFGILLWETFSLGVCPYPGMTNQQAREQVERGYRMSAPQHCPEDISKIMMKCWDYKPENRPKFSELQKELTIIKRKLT
Summary of the method: as §1

[9] = molecular target: T9, kinases of the scanMAX Kinase assay panel (Homo sapiens, UniProt P54646); conditions: AMPK-alpha2; 1 uM
T9 construct: purchased DiscoverX Co. (contract measurement) scanMAX Kinase assay panel
T9 sequence (P54646 whole entry): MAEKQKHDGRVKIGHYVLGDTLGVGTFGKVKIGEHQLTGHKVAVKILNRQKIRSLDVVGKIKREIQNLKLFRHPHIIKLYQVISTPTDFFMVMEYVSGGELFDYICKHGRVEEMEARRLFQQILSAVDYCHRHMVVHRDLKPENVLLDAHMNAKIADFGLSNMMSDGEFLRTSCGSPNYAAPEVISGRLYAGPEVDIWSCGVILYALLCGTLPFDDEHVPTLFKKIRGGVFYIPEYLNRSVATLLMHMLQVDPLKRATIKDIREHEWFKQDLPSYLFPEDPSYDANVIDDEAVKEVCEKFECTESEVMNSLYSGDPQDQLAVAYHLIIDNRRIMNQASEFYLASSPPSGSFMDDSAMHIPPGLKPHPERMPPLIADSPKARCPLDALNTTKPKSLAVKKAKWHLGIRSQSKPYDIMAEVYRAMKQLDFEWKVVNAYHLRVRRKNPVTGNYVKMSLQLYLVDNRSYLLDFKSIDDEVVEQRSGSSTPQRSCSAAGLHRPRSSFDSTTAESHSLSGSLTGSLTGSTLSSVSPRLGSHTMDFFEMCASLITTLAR
Summary of the method: as §1

[10] = molecular target: T10, kinases of the scanMAX Kinase assay panel (Homo sapiens, UniProt P49841); conditions: GSK3B; 1 uM
T10 construct: purchased DiscoverX Co. (contract measurement) scanMAX Kinase assay panel
Summary of the method: as §1

[11] = molecular target: T11, kinases of the scanMAX Kinase assay panel (Homo sapiens, UniProt Q00537); conditions: PCTK2; 1 uM
T11 construct: purchased DiscoverX Co. (contract measurement) scanMAX Kinase assay panel
T11 sequence (Q00537 whole entry): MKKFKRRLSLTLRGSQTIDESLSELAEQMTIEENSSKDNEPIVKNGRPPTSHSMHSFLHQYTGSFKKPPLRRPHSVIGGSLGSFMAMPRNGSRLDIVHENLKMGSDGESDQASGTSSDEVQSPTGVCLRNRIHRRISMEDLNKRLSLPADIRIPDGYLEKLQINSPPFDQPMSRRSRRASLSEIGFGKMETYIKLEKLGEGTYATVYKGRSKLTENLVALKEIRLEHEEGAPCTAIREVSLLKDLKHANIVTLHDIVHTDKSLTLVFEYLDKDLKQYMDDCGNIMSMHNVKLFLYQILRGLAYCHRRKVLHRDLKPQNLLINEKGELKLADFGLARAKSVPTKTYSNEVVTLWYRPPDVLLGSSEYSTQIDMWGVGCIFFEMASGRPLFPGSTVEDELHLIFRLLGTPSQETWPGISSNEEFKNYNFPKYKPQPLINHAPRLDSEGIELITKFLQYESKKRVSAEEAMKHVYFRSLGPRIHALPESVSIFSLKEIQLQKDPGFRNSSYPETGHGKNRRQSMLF
Summary of the method: as §1

[12] = kinase RSK4(Kin.Dom.1-N-terminal), read-out: % control, RSK4(Kin.Dom.1-N-terminal)
[13] = kinase RSK4(Kin.Dom.2-C-terminal), read-out: % control, RSK4(Kin.Dom.2-C-terminal)

SMILES: CC1(Nc2nc(Nc3cnn([C@H]4CCN(C5COC5)C[C@@H]4F)c3Cl)nc3[nH]cc(C#N)c23)CC1 [Example 52, 2-((5-chloro-1-((3S,4S)-3-fluoro-1-(oxetane-3-yl)piperidine-4-yl)-1H-pyrazole-4-yl)amino)((1-methylcyclopropyl)amino)-7H-pyrrolo[2,3-d]pyrimidine-5-carbonitrile]
- remaining binding at 1 µM ([1]; ABL1(F317L)-nonphosphorylated): 16%
- remaining binding at 1 µM ([1]; ABL1(F317L)-phosphorylated): 0%
- remaining binding at 1 µM [2]: 13%
- remaining binding at 1 µM [3]: 96%
- remaining binding at 1 µM [4]: 0.05%
- remaining binding at 1 µM [5, 12]: 7.1%
- remaining binding at 1 µM [5, 13]: 75%
- remaining binding at 1 µM [6]: 100%
- remaining binding at 1 µM [7]: 6.1%
- remaining binding at 1 µM [8]: 0.25%
- remaining binding at 1 µM [9]: 9.9%
- remaining binding at 1 µM [10]: 50%
- remaining binding at 1 µM [11]: 88%

SMILES: CNc1nc(Nc2ccc(C(=O)N3CCOCC3)cc2OC)nc2[nH]cc(C#N)c12 [Example 1, 2-((2-methoxy-4-(morpholine-4-carbonyl)phenyl)amino)-4-(methylamino)-7H-pyrrolo[2,3-d]pyrimidine-5-carbonitrile]
- remaining binding at 1 µM ([1]; ABL1(F317L)-nonphosphorylated): 91%
- remaining binding at 1 µM ([1]; ABL1(F317L)-phosphorylated): 48%
- remaining binding at 1 µM [2]: 47%
- remaining binding at 1 µM [3]: 94%
- remaining binding at 1 µM [4]: 47%
- remaining binding at 1 µM [5, 12]: 79%
- remaining binding at 1 µM [5, 13]: 77%
- remaining binding at 1 µM [6]: 76%
- remaining binding at 1 µM [7]: 48%
- remaining binding at 1 µM [8]: 15%
- remaining binding at 1 µM [9]: 85%
- remaining binding at 1 µM [10]: 79%
- remaining binding at 1 µM [11]: 98%

SMILES: CCNc1nc(Nc2ccc(C(=O)N3CCC(N4CCOCC4)CC3)cc2OC)nc2[nH]cc(C(F)(F)F)c12 [Example 104, (4-((4-(ethylamino)-5-(trifluoromethyl)-7H-pyrrolo[2,3-d]pyrimidine-2-yl)amino)-3-methoxyphenyl)(4-morpholinopiperidine-1-yl)methanone]
- remaining binding at 1 µM ([1]; ABL1(F317L)-nonphosphorylated): 74%
- remaining binding at 1 µM ([1]; ABL1(F317L)-phosphorylated): 35%
- remaining binding at 1 µM [2]: 14%
- remaining binding at 1 µM [3]: 98%
- remaining binding at 1 µM [4]: 74%
- remaining binding at 1 µM [5, 12]: 95%
- remaining binding at 1 µM [5, 13]: 97%
- remaining binding at 1 µM [6]: 100%
- remaining binding at 1 µM [7]: 100%
- remaining binding at 1 µM [8]: 3%
- remaining binding at 1 µM [9]: 100%
- remaining binding at 1 µM [10]: 83%
- remaining binding at 1 µM [11]: 99%
